Measured values from US20130172318A1, “ANTI-INFLAMMATORY AGENTS” (priority 2010, published 2013).

What was measured:
[1] = tested on: endotoxin-stimulated TNF-alpha levels; assay: Murine sub-lethal endotoxemia model, serum TNF-α by ELISA; type: in vivo, mouse; conditions: single dose 1 mg/kg p.o. one hour prior to LPS i.p.; female CD1 mice; serum two hours after challenge
Procedure: The anti-inflammatory efficacy of an exemplary compound according to the present invention was tested using the murine sub-lethal endotoxemia model.
Briefly, the method is as follows: Female CD1 mice (28-30 g, ˜7 weeks of age) were dosed with their respective treatment in sterile filtered 1% CMC by oral gavage in a dose volume of 10 ml/kg one hour prior to an endotoxin (LPS) challenge. The endotoxin challenge was injected by the intraperitoneal route containing 675,000 Endotoxin Units of LPS (E. coli strain 0111:B4 (Code L4130)) in endotoxin free PBS. Mice were left for two hours and then exsanguinated under terminal anaesthesia and blood was taken. Serum was prepared from this terminal bleed and aliquoted and stored at −20° C. Serum TNF-α levels were measured by ELISA per manufacturers instructions (R and D Systems).
Eight animals were treated in each group, and the data for the animal with the highest and lowest TNF-α level in each group were eliminated, and the mean and standard error reported for the remaining six animals. Data for untreated animals were taken from an historical control experiment.

[2] = tested on: chemokine-induced migration; conditions: cited from earlier work
[3] = 37° C.; cited from earlier work
[4] = tested on: MCP-1 induced migration of THP-1 cells; conditions: MCP-1 induced THP-1 cell migration assay; disclosed in WO2005/053702; cited from earlier work
[5] = cited from earlier work

For `O=C(N[C@H]1CCCNC1=O)c1ccc(F)cc1` [Example 3, (S)-4-Fluoro-N-(2-oxopiperidin-3-yl)benzamide], the “inhibition of endotoxin-stimulated TNF-alpha levels” value [1] was 50%.

For “(S)-3-(undec-10-enoyl)-tetrahydropyridin-2-one”, the “BSCI potency/activity in words (comparative)” value [2] is given as “considerably reduced potency” and the “time completely stable in human serum” value [3] is given as “at least 7 days”.

For `CCCCCCCCCCC(C)(C)C(=O)NC1CCCCNC1=O` (stereo not drawn) [2′2′-dimethyldodecenanoyl-3-aminocaprolactam], the “fold more potent as a BSCI than dodecanoyl-3-aminocaprolactam” value [4] is given as 10 fold.

In the case of “c(DCys-DGln-DIle-DTrp-DLys-DGln-DLys-DPro-DAsp-DLeu-DCys)-NH2 [NR58-3.14.3]”, the “half-life period of clearance from blood plasma” value ([5]; after intravenous injection) is listed as “less than 30 minutes” and the oral bioavailability ([5]; in vivo, po) is listed as “not orally bioavailable”.
